Data taken from PubChem BioAssay (NCI).
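Method: 48-hour compound exposure of cells in 96-well plates, five concentrations, linear interpolation of endpoints. The concentration for 50% growth inhibition is given as GI50. TGI marks complete inhibition of growth.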

Legend:
Test in all cases: inhibition of tumour cell growth, NCI panel, 48 h
A549 NSCLC = test system: A549 NSCLC
CAKI-1 renal = test system: CAKI-1 renal
COLO 205 colon = test system: COLO 205 colon
DLD-1 colon = test system: DLD-1 colon
DMS 273 small cell lung = test system: DMS 273 small cell lung
EKVX NSCLC = test system: EKVX NSCLC
HCC-2998 colon = test system: HCC-2998 colon
HCT-116 colon = test system: HCT-116 colon
HCT-15 colon = test system: HCT-15 colon
HOP-18 NSCLC = test system: HOP-18 NSCLC
HT29 colon = test system: HT29 colon
IGROV1 ovarian = test system: IGROV1 ovarian
KM12 colon = test system: KM12 colon
KM20L2 colon = test system: KM20L2 colon
LOX IMVI melanoma = test system: LOX IMVI melanoma
M14 melanoma = test system: M14 melanoma
M19-MEL melanoma = test system: M19-MEL melanoma
MALME-3M melanoma = test system: MALME-3M melanoma
NCI-H226 lung = test system: NCI-H226 lung
NCI-H23 lung = test system: NCI-H23 lung
NCI-H460 lung = test system: NCI-H460 lung
OVCAR-3 ovarian = test system: OVCAR-3 ovarian
OVCAR-4 ovarian = test system: OVCAR-4 ovarian
OVCAR-5 ovarian = test system: OVCAR-5 ovarian
OVCAR-8 ovarian = test system: OVCAR-8 ovarian
RXF 393 renal = test system: RXF 393 renal
SF-295 CNS = test system: SF-295 CNS
SF-539 CNS = test system: SF-539 CNS
SK-MEL-2 melanoma = test system: SK-MEL-2 melanoma
SK-MEL-28 melanoma = test system: SK-MEL-28 melanoma
SK-MEL-5 melanoma = test system: SK-MEL-5 melanoma
SK-OV-3 ovarian = test system: SK-OV-3 ovarian
SN12C renal = test system: SN12C renal
SNB-19 CNS = test system: SNB-19 CNS
SNB-75 CNS = test system: SNB-75 CNS
SNB-78 CNS = test system: SNB-78 CNS
SR leukemia = test system: SR leukemia
SW-620 colon = test system: SW-620 colon
TK-10 renal = test system: TK-10 renal
U251 CNS = test system: U251 CNS
UACC-257 melanoma = test system: UACC-257 melanoma
UACC-62 melanoma = test system: UACC-62 melanoma
UO-31 renal = test system: UO-31 renal
XF 498 CNS = test system: XF 498 CNS
786-0 renal = test system: 786-0 renal
ACHN renal = test system: ACHN renal
CCRF-CEM leukemia = test system: CCRF-CEM leukemia
HL-60(TB) leukemia = test system: HL-60(TB) leukemia
HOP-92 NSCLC = test system: HOP-92 NSCLC
K-562 leukemia = test system: K-562 leukemia
LXFL 529 NSCLC = test system: LXFL 529 NSCLC
MOLT-4 leukemia = test system: MOLT-4 leukemia
RPMI-8226 leukemia = test system: RPMI-8226 leukemia
RXF-631 renal = test system: RXF-631 renal
DMS 114 small cell lung = test system: DMS 114 small cell lung
HOP-62 NSCLC = test system: HOP-62 NSCLC
NCI-H522 lung = test system: NCI-H522 lung
SF-268 CNS = test system: SF-268 CNS

c1cncc([O][Ge]([O]c2cccnc2)([O]c2cccnc2)[O]c2cccnc2)c1
GI50 (A549 NSCLC): > 100 µM
TGI (A549 NSCLC): > 100 µM
GI50 (CAKI-1 renal): > 100 µM
TGI (CAKI-1 renal): > 100 µM
GI50 (COLO 205 colon): > 100 µM
TGI (COLO 205 colon): > 100 µM
GI50 (DLD-1 colon): > 100 µM
TGI (DLD-1 colon): > 100 µM
GI50 (DMS 273 small cell lung): > 100 µM
TGI (DMS 273 small cell lung): > 100 µM
GI50 (EKVX NSCLC): > 100 µM
TGI (EKVX NSCLC): > 100 µM
GI50 (HCC-2998 colon): > 100 µM
TGI (HCC-2998 colon): > 100 µM
GI50 (HCT-116 colon): > 100 µM
TGI (HCT-116 colon): > 100 µM
GI50 (HCT-15 colon): > 100 µM
TGI (HCT-15 colon): > 100 µM
GI50 (HOP-18 NSCLC): > 100 µM
TGI (HOP-18 NSCLC): > 100 µM
GI50 (HT29 colon): > 100 µM
TGI (HT29 colon): > 100 µM
GI50 (IGROV1 ovarian): > 100 µM
TGI (IGROV1 ovarian): > 100 µM
GI50 (KM12 colon): > 100 µM
TGI (KM12 colon): > 100 µM
GI50 (KM20L2 colon): > 100 µM
TGI (KM20L2 colon): > 100 µM
GI50 (LOX IMVI melanoma): 47.1 µM
TGI (LOX IMVI melanoma): > 100 µM
GI50 (M14 melanoma): > 100 µM
TGI (M14 melanoma): > 100 µM
GI50 (M19-MEL melanoma): > 100 µM
TGI (M19-MEL melanoma): > 100 µM
GI50 (MALME-3M melanoma): > 100 µM
TGI (MALME-3M melanoma): > 100 µM
GI50 (NCI-H226 lung): > 100 µM
TGI (NCI-H226 lung): > 100 µM
GI50 (NCI-H23 lung): > 100 µM
TGI (NCI-H23 lung): > 100 µM
GI50 (NCI-H460 lung): > 100 µM
TGI (NCI-H460 lung): > 100 µM
GI50 (OVCAR-3 ovarian): > 100 µM
TGI (OVCAR-3 ovarian): > 100 µM
GI50 (OVCAR-4 ovarian): > 100 µM
TGI (OVCAR-4 ovarian): > 100 µM
GI50 (OVCAR-5 ovarian): > 100 µM
TGI (OVCAR-5 ovarian): > 100 µM
GI50 (OVCAR-8 ovarian): > 100 µM
TGI (OVCAR-8 ovarian): > 100 µM
GI50 (RXF 393 renal): > 100 µM
TGI (RXF 393 renal): > 100 µM
GI50 (SF-295 CNS): > 100 µM
TGI (SF-295 CNS): > 100 µM
GI50 (SF-539 CNS): > 100 µM
TGI (SF-539 CNS): > 100 µM
GI50 (SK-MEL-2 melanoma): > 100 µM
TGI (SK-MEL-2 melanoma): > 100 µM
GI50 (SK-MEL-28 melanoma): > 100 µM
TGI (SK-MEL-28 melanoma): > 100 µM
GI50 (SK-MEL-5 melanoma): > 100 µM
TGI (SK-MEL-5 melanoma): > 100 µM
GI50 (SK-OV-3 ovarian): > 100 µM
TGI (SK-OV-3 ovarian): > 100 µM
GI50 (SN12C renal): > 100 µM
TGI (SN12C renal): > 100 µM
GI50 (SNB-19 CNS): > 100 µM
TGI (SNB-19 CNS): > 100 µM
GI50 (SNB-75 CNS): > 100 µM
TGI (SNB-75 CNS): > 100 µM
GI50 (SNB-78 CNS): > 100 µM
TGI (SNB-78 CNS): > 100 µM
GI50 (SR leukemia): > 100 µM
TGI (SR leukemia): > 100 µM
GI50 (SW-620 colon): > 100 µM
TGI (SW-620 colon): > 100 µM
GI50 (TK-10 renal): > 100 µM
TGI (TK-10 renal): > 100 µM
GI50 (U251 CNS): > 100 µM
TGI (U251 CNS): > 100 µM
GI50 (UACC-257 melanoma): > 100 µM
TGI (UACC-257 melanoma): > 100 µM
GI50 (UACC-62 melanoma): > 100 µM
TGI (UACC-62 melanoma): > 100 µM
GI50 (UO-31 renal): > 100 µM
TGI (UO-31 renal): > 100 µM
GI50 (XF 498 CNS): > 100 µM
TGI (XF 498 CNS): > 100 µM

COCC1N=C(c2cc(OC)c(OC)c(OC)c2-c2cc3c(cc2[C@H](C)O)OCO3)O[C@H]1c1ccccc1 (stereo partly specified)
TGI (786-0 renal): > 100 µM
TGI (A549 NSCLC): > 100 µM
TGI (ACHN renal): > 100 µM
TGI (CCRF-CEM leukemia): > 10 µM
TGI (COLO 205 colon): 85.2 µM
TGI (DLD-1 colon): > 100 µM
TGI (DMS 273 small cell lung): > 100 µM
TGI (EKVX NSCLC): > 100 µM
TGI (HCC-2998 colon): > 100 µM
TGI (HCT-116 colon): > 100 µM
TGI (HCT-15 colon): > 100 µM
TGI (HL-60(TB) leukemia): > 10 µM
TGI (HOP-18 NSCLC): > 100 µM
TGI (HOP-92 NSCLC): 86.4 µM
TGI (HT29 colon): > 100 µM
TGI (IGROV1 ovarian): > 100 µM
TGI (K-562 leukemia): > 10 µM
TGI (KM12 colon): > 100 µM
TGI (KM20L2 colon): > 100 µM
TGI (LOX IMVI melanoma): > 100 µM
TGI (LXFL 529 NSCLC): > 100 µM
TGI (M14 melanoma): > 100 µM
TGI (M19-MEL melanoma): > 100 µM
TGI (MOLT-4 leukemia): > 100 µM
TGI (NCI-H226 lung): > 100 µM
TGI (NCI-H23 lung): > 100 µM
TGI (OVCAR-3 ovarian): > 100 µM
TGI (OVCAR-4 ovarian): > 100 µM
TGI (OVCAR-8 ovarian): > 100 µM
TGI (RPMI-8226 leukemia): > 100 µM
TGI (RXF-631 renal): > 100 µM
TGI (SF-295 CNS): > 100 µM
TGI (SF-539 CNS): > 100 µM
TGI (SK-MEL-2 melanoma): > 100 µM
TGI (SK-MEL-28 melanoma): > 100 µM
TGI (SK-MEL-5 melanoma): > 100 µM
TGI (SK-OV-3 ovarian): > 100 µM
TGI (SN12C renal): > 100 µM
TGI (SNB-19 CNS): > 100 µM
TGI (SNB-75 CNS): > 100 µM
TGI (SNB-78 CNS): > 100 µM
TGI (SW-620 colon): > 100 µM
TGI (TK-10 renal): > 100 µM
TGI (U251 CNS): > 100 µM
TGI (UACC-62 melanoma): > 100 µM
TGI (UO-31 renal): > 100 µM

COc1ccc2c(c1)[n+](=O)c(C(C)=O)c(C)n2[O-]
TGI (786-0 renal): > 100 µM
TGI (A549 NSCLC): > 100 µM
TGI (ACHN renal): > 100 µM
TGI (CAKI-1 renal): > 100 µM
TGI (COLO 205 colon): > 100 µM
TGI (DLD-1 colon): > 100 µM
TGI (DMS 114 small cell lung): > 100 µM
TGI (EKVX NSCLC): > 100 µM
TGI (HCC-2998 colon): > 100 µM
TGI (HCT-116 colon): > 100 µM
TGI (HCT-15 colon): > 100 µM
TGI (HL-60(TB) leukemia): > 100 µM
TGI (HOP-18 NSCLC): > 100 µM
TGI (HOP-62 NSCLC): > 100 µM
TGI (HOP-92 NSCLC): > 100 µM
TGI (HT29 colon): > 100 µM
TGI (IGROV1 ovarian): > 100 µM
TGI (K-562 leukemia): > 100 µM
TGI (KM12 colon): > 100 µM
TGI (LOX IMVI melanoma): > 100 µM
TGI (LXFL 529 NSCLC): > 100 µM
TGI (M14 melanoma): > 100 µM
TGI (M19-MEL melanoma): > 100 µM
TGI (MALME-3M melanoma): > 100 µM
TGI (MOLT-4 leukemia): > 100 µM
TGI (NCI-H226 lung): > 100 µM
TGI (NCI-H23 lung): > 100 µM
TGI (NCI-H460 lung): > 100 µM
TGI (NCI-H522 lung): > 100 µM
TGI (OVCAR-3 ovarian): > 100 µM
TGI (OVCAR-4 ovarian): > 100 µM
TGI (OVCAR-5 ovarian): > 100 µM
TGI (OVCAR-8 ovarian): > 100 µM
TGI (RPMI-8226 leukemia): > 100 µM
TGI (RXF 393 renal): > 100 µM
TGI (SF-268 CNS): > 100 µM
TGI (SF-295 CNS): > 100 µM
TGI (SF-539 CNS): > 100 µM
TGI (SK-MEL-2 melanoma): > 100 µM
TGI (SK-MEL-28 melanoma): > 100 µM
TGI (SK-MEL-5 melanoma): > 100 µM
TGI (SK-OV-3 ovarian): > 100 µM
TGI (SN12C renal): > 100 µM
TGI (SNB-19 CNS): > 100 µM
TGI (SNB-78 CNS): > 100 µM
TGI (SW-620 colon): > 100 µM
TGI (TK-10 renal): > 100 µM
TGI (U251 CNS): > 100 µM
TGI (UACC-257 melanoma): > 100 µM
TGI (UACC-62 melanoma): > 100 µM
TGI (UO-31 renal): > 100 µM
TGI (XF 498 CNS): > 100 µM
